{"source": "ChEMBL document CHEMBL1201862", "about": "“PubChem BioAssay data set” (2004)", "key": {"[1]": {"experiment": "cytotoxicity in HEK-293T cells, dose response, cytotoxicity control for TCR NF-kB inhibitor project, luminescence, T-cell screen hits (AID 489026);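 further: cells exposed to compound about 14 hours before the viability readout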", "assay_type": "functional, cell-based"}, "[2]": {"target": "T1, Alkaline phosphatase, tissue-nonspecific isozyme (Homo sapiens, UniProt P05186)", "T1 sequence (P05186 whole entry)": "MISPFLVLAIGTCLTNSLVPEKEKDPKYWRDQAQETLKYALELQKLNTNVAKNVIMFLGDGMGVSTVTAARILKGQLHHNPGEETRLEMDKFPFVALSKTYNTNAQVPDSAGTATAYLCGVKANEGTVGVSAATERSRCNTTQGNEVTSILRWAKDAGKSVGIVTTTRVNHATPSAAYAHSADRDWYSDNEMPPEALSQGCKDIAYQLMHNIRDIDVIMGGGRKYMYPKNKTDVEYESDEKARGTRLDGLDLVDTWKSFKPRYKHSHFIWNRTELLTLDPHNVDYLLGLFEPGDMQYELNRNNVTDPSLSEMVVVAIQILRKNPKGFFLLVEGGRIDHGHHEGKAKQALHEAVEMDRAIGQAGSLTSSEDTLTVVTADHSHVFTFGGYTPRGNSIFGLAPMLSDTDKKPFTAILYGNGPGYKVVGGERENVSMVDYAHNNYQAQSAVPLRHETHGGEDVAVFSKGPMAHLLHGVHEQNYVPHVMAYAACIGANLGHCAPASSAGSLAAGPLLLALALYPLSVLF"}, "[3]": {"target": "T2, Eukaryotic translation initiation factor 2-alpha kinase 3 (Homo sapiens, UniProt Q9NZJ5)", "T2 sequence (Q9NZJ5 whole entry)": "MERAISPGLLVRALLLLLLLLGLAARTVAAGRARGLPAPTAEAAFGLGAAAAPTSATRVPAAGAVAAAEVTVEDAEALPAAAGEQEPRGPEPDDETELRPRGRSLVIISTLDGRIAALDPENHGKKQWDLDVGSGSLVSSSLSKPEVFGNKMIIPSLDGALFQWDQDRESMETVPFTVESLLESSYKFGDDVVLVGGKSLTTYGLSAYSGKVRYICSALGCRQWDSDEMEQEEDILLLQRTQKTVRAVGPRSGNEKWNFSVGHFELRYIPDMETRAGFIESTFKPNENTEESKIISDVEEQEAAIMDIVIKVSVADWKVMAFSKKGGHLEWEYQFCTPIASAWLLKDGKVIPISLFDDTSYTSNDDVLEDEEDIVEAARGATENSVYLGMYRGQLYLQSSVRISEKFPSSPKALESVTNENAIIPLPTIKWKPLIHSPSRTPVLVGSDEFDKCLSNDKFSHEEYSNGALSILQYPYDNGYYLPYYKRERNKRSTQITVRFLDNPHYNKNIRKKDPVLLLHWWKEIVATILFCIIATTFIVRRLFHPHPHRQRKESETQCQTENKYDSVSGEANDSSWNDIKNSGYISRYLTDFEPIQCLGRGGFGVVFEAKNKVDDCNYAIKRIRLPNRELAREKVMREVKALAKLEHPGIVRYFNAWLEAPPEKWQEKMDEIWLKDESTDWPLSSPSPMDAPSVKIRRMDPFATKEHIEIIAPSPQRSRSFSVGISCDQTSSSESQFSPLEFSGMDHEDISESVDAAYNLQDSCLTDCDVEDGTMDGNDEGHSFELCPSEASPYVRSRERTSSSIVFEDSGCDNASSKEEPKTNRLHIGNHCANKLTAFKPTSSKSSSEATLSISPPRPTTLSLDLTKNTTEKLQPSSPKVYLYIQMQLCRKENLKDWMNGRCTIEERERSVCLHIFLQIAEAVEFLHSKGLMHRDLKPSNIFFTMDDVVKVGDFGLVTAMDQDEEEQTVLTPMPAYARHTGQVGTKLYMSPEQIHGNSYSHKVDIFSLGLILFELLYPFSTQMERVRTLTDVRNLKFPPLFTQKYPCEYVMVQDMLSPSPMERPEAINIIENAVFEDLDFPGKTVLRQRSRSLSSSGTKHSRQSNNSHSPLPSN", "experiment": "Counterscreen assay for PERK inhibitors: Dose response cell-based high throughput screening assay to measure inhibition of PERK at 6 hours. [Related pubchem assays: 1522, 1416 ]", "assay_type": "functional"}, "[4]": {"target": "T2, Eukaryotic translation initiation factor 2-alpha kinase 3", "experiment": "Dose response cell-based high-throughput screening assay to measure PERK inhibition. [Related pubchem assays: 1416 ]", "assay_type": "functional"}, "INS1": {"tested_on": "INS1", "experiment": "beta cell apoptosis inhibitors, cytokine rescue, dose response, luminescence, retest (AID 449756);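 further: cell death triggered by IL-1 beta plus TNF-alpha plus IFN-gamma mixture; protective hits raise ATP signal compared with cytokine alone wells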", "assay_type": "functional, cell-based", "conditions": "Rattus norvegicus"}, "[5]": {"experiment": "A cytotoxicity screen of small molecule inhibitors of the PhoP region in Salmonella typhi identified in the primary screen. [Related pubchem assays: 1850, 1864, 1985 ]", "assay_type": "functional"}, "HT-1080": {"tested_on": "HT-1080", "experiment": "cytotoxicity in HT1080 fibrosarcoma cells, cell-based, fluorescence readout (AID 620)", "assay_type": "functional", "conditions": "Homo sapiens"}, "[6]": {"experiment": "Luminescence-based counterscreen assay for KLF5 inhibitors: dose response cell-based high throughput screening assay to identify cytotoxic compounds using the IEC-6 intestinal epithelial cell line. [Related pubchem assays: 1700 (Primary screen.), 1834 (Confirmation screen.), 1858 (Summary AID.), 1905 (Counterscreen.)]", "assay_type": "functional"}, "HEK293 [7]": {"tested_on": "HEK293", "experiment": "Cytotoxicity assay in HEK293 cells. [Related pubchem assays (depositor defined):AID1266, AID1269, AID1270, AID1271, AID1280, AID1281, AID1282, AID1283, AID1287, AID1289, AID1290, AID1291, AID1292, AID1293, AID1294, AID1295, AID1299, AID1302, AID1364, AID1365, AID1366, AID1367, AID1369, AID1370, AID1371, AID1372, AID1373, AID1374, AID1375, AID1384 …", "assay_type": "functional, cell-based", "conditions": "Homo sapiens"}, "[8]": {"experiment": "ZM109 Env clade C HIV-1 fusion inhibitors, dose response, HeLa effector, CEM target cells, luciferase, cherry-pick (AID 652058)", "assay_type": "functional, cell-based"}, "HEK293 [9]": {"tested_on": "HEK293", "experiment": "TNF Induced NF-kB Luciferase in 293-NF-kB-Luc Stable Cells. [Related pubchem assays: 1266, 1299, 1269, 1373, 1292, 1290, 1302, 1371, 1283, 1270, 1295, 1271, 1375, 1294, 1374, 1281, 1293, 1291, 1289, 1280, 465, 1368, 1364, 1282, 1372, 1365, 1369, 1370, 1367, 1366 ]", "assay_type": "functional, cell-based", "conditions": "Homo sapiens"}, "[10]": {"experiment": "inhibitors of clade B AD8 Env fusion, dose response, cell-based, cherry-pick (AID 652062);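 further: potency is for inhibitors of fusion seen as a drop in luminescence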", "assay_type": "functional"}, "[11]": {"experiment": "inhibitors of HIV Env-driven cell fusion, dose response, cherry-pick (AID 652057)", "assay_type": "functional, cell-based"}, "HEK293 [12]": {"tested_on": "HEK293", "experiment": "PMA/Ionomycin induced NF-kB luciferase assay in 293- NF-kB-Luc stable cells. [Related pubchem assays: 1299, 1270, 1295, 1375, 1287, 1281, 1293, 1291, 1289, 1280, 465, 1364, 1282, 1372, 1365, 1370, 1367, 1366, 1269, 1373, 1292, 1290, 1302, 1371, 1283, 1271, 1294, 1374, 1368, 1369 ]", "assay_type": "functional, cell-based", "conditions": "Homo sapiens"}, "[13]": {"target": "Glyceraldehyde-3-phosphate dehydrogenase (Homo sapiens, UniProt P04406)", "sequence (P04406 whole entry)": "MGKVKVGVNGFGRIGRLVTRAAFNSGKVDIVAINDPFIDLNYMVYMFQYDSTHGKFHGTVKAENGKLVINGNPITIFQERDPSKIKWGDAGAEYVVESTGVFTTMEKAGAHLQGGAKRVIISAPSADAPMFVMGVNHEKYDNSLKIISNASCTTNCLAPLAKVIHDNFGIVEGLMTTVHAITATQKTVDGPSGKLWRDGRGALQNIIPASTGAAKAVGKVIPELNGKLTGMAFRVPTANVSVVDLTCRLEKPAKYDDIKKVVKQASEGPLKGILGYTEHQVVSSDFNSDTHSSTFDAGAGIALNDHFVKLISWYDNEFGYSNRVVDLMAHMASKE"}, "[14]": {"experiment": "off-target signal loss in HeLa-CEM21 co-culture – HeLa F-luc CTL cells, cherry-picked, counter-screen for HIV-1 Env fusion inhibitor project, dose response (AID 652040);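 further: potency for signal decrease marking cytotoxic or nonspecific inhibition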", "assay_type": "functional, cell-based"}, "[15]": {"target": "T3, Luciferin 4-monooxygenase (Photinus pyralis, UniProt P08659)", "T3 sequence (P08659 whole entry)": "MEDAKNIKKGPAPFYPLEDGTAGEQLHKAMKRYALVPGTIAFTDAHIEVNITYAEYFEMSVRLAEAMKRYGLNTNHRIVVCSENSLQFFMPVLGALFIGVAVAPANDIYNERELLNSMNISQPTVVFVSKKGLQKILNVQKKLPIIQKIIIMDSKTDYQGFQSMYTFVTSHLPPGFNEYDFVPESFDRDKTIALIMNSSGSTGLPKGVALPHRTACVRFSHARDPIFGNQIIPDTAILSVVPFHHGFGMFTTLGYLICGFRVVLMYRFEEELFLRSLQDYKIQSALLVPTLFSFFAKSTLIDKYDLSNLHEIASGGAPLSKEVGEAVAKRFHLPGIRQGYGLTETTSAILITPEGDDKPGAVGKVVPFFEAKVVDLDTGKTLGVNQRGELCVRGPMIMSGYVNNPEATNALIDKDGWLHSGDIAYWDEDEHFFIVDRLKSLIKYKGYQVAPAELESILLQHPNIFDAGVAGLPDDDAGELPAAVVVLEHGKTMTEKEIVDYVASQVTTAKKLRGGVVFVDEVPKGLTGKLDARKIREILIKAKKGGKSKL", "experiment": "In vitro luciferase assay using purified luciferase. [Related pubchem assays: 1299, 1270, 1295, 1375, 1287, 1281, 1293, 1291, 1289, 1280, 465, 1364, 1282, 1372, 1365, 1370, 1367, 1366, 1266, 1373, 1292, 1290, 1302, 1371, 1283, 1271, 1294, 1374, 1368, 1369 ]"}, "HEK293 [16]": {"tested_on": "HEK293", "experiment": "PMA/Ionomycin-induced IL-8 production in HEK293- NF-kB-Luc stable cells. [Related pubchem assays: 1299, 1295, 1375, 1287, 1281, 1293, 1291, 1289, 1280, 465, 1364, 1282, 1372, 1365, 1367, 1366, 1266, 1269, 1373, 1292, 1290, 1302, 1371, 1283, 1271, 1294, 1374, 1368, 1369 ]", "assay_type": "functional, cell-based", "conditions": "Homo sapiens"}, "Protein Tat": {"target": "Protein Tat (Human immunodeficiency virus type 1 group M subtype B (isolate HXB2)(HIV-1), UniProt P04608)", "sequence (P04608 whole entry)": "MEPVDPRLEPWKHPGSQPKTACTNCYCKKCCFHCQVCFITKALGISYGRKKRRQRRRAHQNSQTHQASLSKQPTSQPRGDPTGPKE", "assay_type": "functional"}, "[17]": {"target": "T3, Luciferin 4-monooxygenase", "experiment": "Counter Screen for Luciferase-based Assay Positives. [Related pubchem assays: 620, 618, 411 ]"}, "[18]": {"experiment": "polyadenylation inhibitors in yeast reporter, dose response, luminescence, S. cerevisiae SKY197-pL101 (AID 2525)", "assay_type": "functional, cell-based"}, "[19]": {"experiment": "S. cerevisiae growth inhibition, dose response, counter-screen for polyadenylation inhibitor project, Alamar Blue fluorescence, MIC (AID 2693)", "assay_type": "functional", "conditions": "Saccharomyces cerevisiae"}, "[20]": {"experiment": "Luminescence Cell-Based Dose Confirmation HTS to Identify Inhibitors of Polyadenylation.", "assay_type": "functional"}, "Large T antigen": {"target": "Large T antigen (Simian virus 40, UniProt P03070)", "sequence (P03070 whole entry)": "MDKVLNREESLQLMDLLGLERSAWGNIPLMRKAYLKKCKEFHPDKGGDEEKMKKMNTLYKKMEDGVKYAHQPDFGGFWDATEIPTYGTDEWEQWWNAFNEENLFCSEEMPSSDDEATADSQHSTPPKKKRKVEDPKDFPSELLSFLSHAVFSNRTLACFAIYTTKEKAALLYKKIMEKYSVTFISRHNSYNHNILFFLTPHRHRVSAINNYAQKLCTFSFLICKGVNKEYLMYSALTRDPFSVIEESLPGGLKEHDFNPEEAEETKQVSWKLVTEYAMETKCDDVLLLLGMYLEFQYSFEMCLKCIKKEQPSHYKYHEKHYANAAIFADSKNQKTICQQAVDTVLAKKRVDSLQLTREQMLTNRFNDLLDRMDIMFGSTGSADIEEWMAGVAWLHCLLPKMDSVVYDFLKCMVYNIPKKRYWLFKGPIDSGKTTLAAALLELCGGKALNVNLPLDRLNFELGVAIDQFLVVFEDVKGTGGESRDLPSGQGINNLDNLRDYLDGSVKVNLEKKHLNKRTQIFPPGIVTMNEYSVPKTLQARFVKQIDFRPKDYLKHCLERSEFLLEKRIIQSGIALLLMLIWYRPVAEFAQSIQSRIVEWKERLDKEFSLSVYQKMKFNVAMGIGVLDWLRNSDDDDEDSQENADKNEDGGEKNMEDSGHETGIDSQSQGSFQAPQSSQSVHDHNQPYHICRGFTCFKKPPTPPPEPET", "assay_type": "functional, Betapolyomavirus macacae"}}, "note": "Activity calls are given as the source filed them."}
{"smiles": "CCOC(=O)c1ccc2nc(Nc3nc4ccc(F)cc4s3)sc2c1", "values": [{"measurement": "IC50", "setting": "[1]", "value": "> 80 µM (inactive)"}, {"measurement": "EC50", "setting": "[2]", "value": "33.6 µM (active)"}]}
{"smiles": "COCCNC(=O)c1cnn2c(O)cc(C3CCN(C(=O)OC(C)(C)C)CC3)nc12", "values": [{"measurement": "EC50", "setting": "[3]", "value": "> 55.7 µM (not active)"}, {"measurement": "EC50", "setting": "[4]", "value": "> 55.7 µM (not active)"}]}
{"smiles": "O=C(c1ccc2c(c1)nc(S)n1c3ccccc3nc21)N1CCN(c2cccc(Cl)c2)CC1", "values": [{"measurement": "AC50", "setting": "INS1", "value": "8.62 µM (active)"}, {"measurement": "EC50", "setting": "[5]", "value": "> 50 µM (active)"}]}
{"smiles": "Cc1cc(C(=O)CN2C(=O)c3ccccc3S2(=O)=O)c(C)n1CC1CCCO1", "note": "(centres undefined)", "values": [{"measurement": "EC50", "setting": "HT-1080", "value": "> 50 µM (not active)"}, {"measurement": "IC50", "setting": "[6]", "value": "> 39.8 µM (not active)"}, {"measurement": "EC50", "setting": "HEK293 [7]", "value": "8.14 µM (inactive)"}, {"measurement": "AC50", "setting": "[8]", "value": "1.35 µM (active)"}, {"measurement": "EC50", "setting": "HEK293 [9]", "value": "6.87 µM (not active)"}, {"measurement": "AC50", "setting": "[10]", "value": "0.445 µM (active)"}, {"measurement": "AC50", "setting": "[11]", "value": "0.287 µM (active)"}, {"measurement": "EC50", "setting": "HEK293 [12]", "value": "0.456 µM (active)"}, {"measurement": "IC50", "setting": "[13]", "value": "> 100 µM (not active)"}, {"measurement": "AC50", "setting": "[14]", "value": "0.407 µM (active)"}, {"measurement": "EC50", "setting": "[15]", "value": "> 8 µM (not active)"}, {"measurement": "EC50", "setting": "HEK293 [16]", "value": "> 8 µM (not active)"}, {"measurement": "IC50", "setting": "Protein Tat", "value": "> 100 µM (active)"}, {"measurement": "EC50", "setting": "[17]", "value": "1.17 µM (active)"}]}
{"smiles": "COc1cc(/C=C2\\SC(=S)N(NC(=O)c3cccnc3)C2=O)ccc1O", "values": [{"measurement": "EC50", "setting": "[18]", "value": "103 µM (active)"}, {"measurement": "MIC", "setting": "[19]", "value": "> 37 µM (inconclusive)"}, {"measurement": "EC50", "setting": "[20]", "value": "9.9 µM (active)"}, {"measurement": "IC50", "setting": "Large T antigen", "value": "8.49 µM (active)"}]}
